Measurements as given in patent EP1377579B1 (Aventis Pharmaceuticals Inc., priority 2000, dated 2002).
Values joined by “and” are separate entries in the source; they are usually repeats but may differ in a detail not shown here. Equal values may be shown once. Read-outs that look alike come from different tables or passages of the source.

What was measured:
cdk4/cyclin D1 = cdk4/cyclin D1 (Homo sapiens, UniProt P11802); assay: Cyclin-dependent kinase assay, cdk4/cyclin D1; type: biochemical; conditions: cyclin D1/cdk4; GST-pRb substrate, 10 µM ATP
MDA-MB-435 = assay: In vitro proliferation assay (MTT), MDA-MB-435; type: cell-based, human; conditions: Homo sapiens
Summary of the method: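 Step one: plate 1000 to 2500 cells per well and let them recover overnight. Step two: treat with compound for 3 days. Step three: add MTT, dissolve dye in DMSO, read absorbance at 570 nm and determine IC50.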

NCI-H460 = assay: In vitro proliferation assay (MTT), NCI-H460; type: cell-based; conditions: Homo sapiens
Summary of the method: (§1)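 IC50 values come from live-cell estimates based on MTT reduction measured at 570 nm after 3 days of compound treatment. Cells are seeded at 1000 to 2500 per well in serum-supplemented RPMI 1640. They are stained with MTT for 2 to 4 hr at 37 C and the dye is then taken up in DMSO.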

Jurkat = assay: In vitro proliferation assay (MTT), Jurkat; type: cell-based; conditions: Homo sapiens, read-out: Jurkat Leuk. (IC50 µM)
Summary of the method: as §1

[1] = Red blood cell binding, mouse whole blood; type: in vitro ADME; conditions: 30 minutes at 37°C, 500 ng/ml
Method: Compounds, including one positive control, are assessed for red blood cell (RBC) uptake, using a modified procedure based on the protocol reported in Sun, J.X.S., et al. High-performance liquid chromatographic analysis, plasma protein binding and red blood cell partitioning of phenprobamate. Biopharmaceutics and Drug Disposition, 8 (1987) 341-351.
Briefly, RBC uptake is evaluated by comparison of the levels in spiked plasma (n=3) and plasma isolated from spiked whole blood (n=3). Compounds are incubated with human and mouse whole blood, respectively, for 30 minutes at 37°C using a nominal concentration of 500 ng/ml. Following centrifugation, the plasma is removed and submitted for analysis. Each compound is also spiked into blank plasma at a nominal concentration of 500 ng/ml, and submitted for analysis. Levels in the two plasma samples (Cp' and Cp in the equation below) and the blood hematocrit are used to determine the red blood cell to plasma ratio (Crbc/Cp). (Crbc)/(Cp) = (Cpʹ)/(Cp•H)-((1-H))/(H) [formula] In equation 1, Cp' is the level of drug in the spiked "blank" plasma, Cp is the level of drug in the plasma of spiked whole blood, and H is the hematocrit. The hematocrit values are determined as 0.4 for human whole blood and 0.41 for mouse whole blood. The samples are analyzed with ESI LC/MS, using positive ion detection with an internal standard.
The red blood cell to plasma ratio is determined for each compound using equation 1. Tables 6 and 7 summarize the respective mean Crbc/Cp values and standard deviations for mouse and human whole blood, respectively, in descending order based on the red blood cell to plasma ratio, where"*" denotes Positive Control, and "ND" denotes Not Determined. MDL 108552 is included as a positive control for red blood cell uptake. Table 6. Red Blood Cell to Plasma Ratio for compounds in mouse whole blood

Colo-205 = assay: In vitro proliferation assay (MTT), Colo-205; type: cell-based; conditions: Homo sapiens
Summary of the method: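 After 3 days of compound exposure, MTT was added to Colo-205 cultures for 2–4 h at 37 °C. Formazan was dissolved in DMSO and absorbance read at 570 nm. Cells had been plated at 1000–2500/well and left to recover overnight; IC50 values came from the raw readings.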

in vivo = conditions: male, Hsd:ICR (CD-1), mouse, plasma
Method: Male mice are given single intravenous cassette doses of CDK inhibitor compounds.
Doses are adjusted for the weight of the individual dihydrochloride and trihydrochloride salts. The compounds are stored desiccated within a closed cabinet at room temperature before use. Dose levels are prepared on the morning of each study.
A single intravenous cassette dose (18 or 15 mg/kg free base) is administered. For each compound, this is equivalent to a dose of approx. 3 mg/kg free base. […] The dose is administered at a volume of 10 ml/kg (total volume of approximately 0.25 ml/animal).
Male mice (Hsd:ICR (CD-1® SD®), Harlan), each weighing approximately 20 - 30 g at the start of the study. […] Water is available ad libitum throughout the study.
Dose Administration and Sample Collection: • A single cassette dose of 5-6 compounds is administered by bolus injection into the tail vein over a 10 - 15-second period. […] Whole blood (approximately 0.6 ml/sample) is obtained by cardiac puncture and transferred to 3 ml glass tubes containing 45 U sodium heparin.
Sample Processing: Plasma: Whole blood is centrifuged at approximately 3,200 rpm for 10 min at approximately 5°C and the plasma (approx. 0.3 ml/sample) is transferred to chilled plastic vials and stored at approx. -70°C until bioanalysis.
Sample Analysis: Concentrations of each test article in plasma are quantitated by a non-validated method based on LC/MS using the following protocol.
Samples are removed from the freezer, allowed to thaw at room temperature, and vortexed to insure complete homogenization prior to sample manipulation. Samples are then prepared according to the following scheme: • 1. transfer 48 µL of plasma (blank mouse sample) into a 12 x 75 mm test tube. • 2. add 12 µL of working standard to the blank plasma for standard curve preparation. • 3. […] Inject 25 µL on LC/MS.
Data Analysis: Concentrations of Compounds in plasma of individual animals are determined by bioanalytics. […] Statistical analyses are limited to simple expressions of variation (mean and standard deviation). The plasma AUC (area-under-curve) is determined by the linear trapezoidal rule. […] All PK parameters are determined by noncompartmental methods using WinNonlin version 3.0 (Pharsight Corp). Plasma vs. time profiles are prepared by Sigma Plot (SPSS, Inc.).

cdk1/cyclin B = cdk1/cyclin B (Homo sapiens, UniProt P06493); assay: Cyclin-dependent kinase assay, cdk1/cyclin B; conditions: CDK1 IC50, nM, Histone H1, 10 µM ATP
[2] = MDA-MB-435, MTT assay, value (SD, n) where given, read-out: MB-435 Breast (IC50 µM)
[3] = NCI-H460, MTT assay, value (SD, n) where given, read-out: H-460 Lung (IC50 µM)
[4] = MTT assay, value (SD, n) where given
[5] = COLO 205, MTT assay, value (SD, n) where given, read-out: Colo-205 Colon (IC50 µM)
[6] = MDA-MB-435, read-out: MB-435 Breast (IC50 µM)
[7] = NCI-H460, read-out: H-460 Lung (IC50 µM)
[8] = COLO 205, read-out: Colo-205 Colon (IC50 µM)

cdk1/cyclin B, sequence (P06493 whole entry): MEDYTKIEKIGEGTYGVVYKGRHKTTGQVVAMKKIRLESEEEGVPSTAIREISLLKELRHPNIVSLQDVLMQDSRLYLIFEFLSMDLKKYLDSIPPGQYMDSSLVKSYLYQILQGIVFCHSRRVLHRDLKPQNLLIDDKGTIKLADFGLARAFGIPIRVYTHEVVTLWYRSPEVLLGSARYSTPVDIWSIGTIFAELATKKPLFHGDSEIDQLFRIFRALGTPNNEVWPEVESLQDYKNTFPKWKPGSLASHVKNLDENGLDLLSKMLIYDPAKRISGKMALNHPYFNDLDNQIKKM
cdk1/cyclin B, sequence (P14635 whole entry partner): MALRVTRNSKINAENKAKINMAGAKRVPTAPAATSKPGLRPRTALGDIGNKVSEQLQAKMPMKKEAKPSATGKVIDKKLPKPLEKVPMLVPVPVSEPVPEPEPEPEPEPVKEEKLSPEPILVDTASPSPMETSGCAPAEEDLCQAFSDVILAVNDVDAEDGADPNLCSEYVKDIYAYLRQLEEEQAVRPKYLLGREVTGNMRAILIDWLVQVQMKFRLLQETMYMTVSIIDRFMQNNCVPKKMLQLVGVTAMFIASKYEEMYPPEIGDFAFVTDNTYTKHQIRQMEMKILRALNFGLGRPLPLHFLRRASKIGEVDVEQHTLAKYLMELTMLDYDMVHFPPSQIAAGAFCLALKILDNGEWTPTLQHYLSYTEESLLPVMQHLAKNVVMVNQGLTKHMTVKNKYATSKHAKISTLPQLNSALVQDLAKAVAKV
cdk4/cyclin D1, sequence (P11802 whole entry): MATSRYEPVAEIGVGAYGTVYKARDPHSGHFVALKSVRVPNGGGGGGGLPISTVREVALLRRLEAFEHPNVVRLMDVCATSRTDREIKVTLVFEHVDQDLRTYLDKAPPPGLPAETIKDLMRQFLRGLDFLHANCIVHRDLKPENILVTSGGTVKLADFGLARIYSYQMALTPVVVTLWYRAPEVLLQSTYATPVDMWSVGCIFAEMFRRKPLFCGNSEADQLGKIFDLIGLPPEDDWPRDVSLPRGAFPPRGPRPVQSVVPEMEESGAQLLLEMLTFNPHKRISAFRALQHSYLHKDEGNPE
cdk4/cyclin D1, sequence (P24385 whole entry partner): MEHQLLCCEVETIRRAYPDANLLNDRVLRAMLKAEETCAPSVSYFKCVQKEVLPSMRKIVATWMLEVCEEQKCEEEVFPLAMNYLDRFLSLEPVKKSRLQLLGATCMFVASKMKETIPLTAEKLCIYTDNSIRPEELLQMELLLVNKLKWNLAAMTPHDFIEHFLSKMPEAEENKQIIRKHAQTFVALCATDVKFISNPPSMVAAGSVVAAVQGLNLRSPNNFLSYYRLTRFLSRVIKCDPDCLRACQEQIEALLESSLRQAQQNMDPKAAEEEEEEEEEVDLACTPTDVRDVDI

Structure (SMILES) | IC50 (cdk4/cyclin D1) [nM] | Mean Red Blood Cell to Plasma Ratio [1] | AUC(0-inf) (in vivo; iv, 3 mg/kg) [ng·h/mL] | Cmax (in vivo; iv, 3 mg/kg) [ng/mL] | half-life (in vivo; iv, 3 mg/kg) [h] | concentration at 0.083 h (in vivo; iv, 18 mg/kg) [ng/mL] | concentration at 0.25 h (in vivo; iv, 18 mg/kg) [ng/mL] | concentration at 0.5 h (in vivo; iv, 18 mg/kg) [ng/mL] | concentration at 1 h (in vivo; iv, 18 mg/kg) [ng/mL] | concentration at 3 h (in vivo; iv, 18 mg/kg) [ng/mL] | concentration at 6 h (in vivo; iv, 18 mg/kg) [ng/mL] | concentration at 8 h (in vivo; iv, 18 mg/kg) [ng/mL] | IC50 (cdk1/cyclin B) [nM] | IC50 (MDA-MB-435; [6]) [µM] | IC50 (NCI-H460; [7]) [µM] | IC50 (Jurkat) [µM] | IC50 (Colo-205; [8]) [µM] | concentration at 0.083 h (in vivo; intravenous, 3 mg/kg) [ng/mL] | concentration at 0.25 h (in vivo; intravenous, 3 mg/kg) [ng/mL] | concentration at 0.5 h (in vivo; intravenous, 3 mg/kg) [ng/mL] | also measured
Cl.Cl.N[C@H]1CC[C@H](Nc2nc(NC3CCN(C(=O)c4cccc(C(F)(F)F)c4F)CC3)c3ncn(C4CCCC4)c3n2)CC1 [compound 12, trans-1-{4-[2-(4-Amino-cyclohexylamino)-9-cyclopentyl-9H-purin-6-ylamino]-piperidin-1-yl}-1-(2-fluoro-3-trifluoromethyl-phenyl)-methanone dihydrochloride] | 614 | 1.9 | 2550 | 4110 | 2.3 | 4110 ± 754 | 2360 ± 124 | 1090 ± 36.1 | 465 ± 34.6 | 74.7 ± 17.4 | 27 ± 2.7 | 16.9 ± 1.4 | 88 | – | – | – | – | – | – | – | IC50 (MDA-MB-435; [2]): 0.28 µM; IC50 (NCI-H460; [3]): 0.38 µM; IC50 (Jurkat; [4]): 0.48 µM; IC50 (Colo-205; [5]): 0.21 µM
Cl.Cl.N[C@H]1CC[C@H](Nc2nc(NC3CCN(C(=O)Oc4ccc(Br)cc4)CC3)c3ncn(C4CCCC4)c3n2)CC1 [compound 81, trans-4-[2-(4-Amino-cyclohexylamino)-9-cyclopentyl-9H-purin-6-ylamino]-piperidine-1-carboxylic acid 4-bromo-phenyl ester dihydrochloride] | 67 | – | 660 | 1770 | 1.7 | 1770 ± 384 | 394 ± 142 | 164 ± 47.2 | 65.3 ± 10 | 12.7 ± 3.4 | 5.4 ± 1.5 | 3.5 ± 0.9 | 16 | 0.1 | 0.07 | 0.1 | 0.03 | – | – | – | Mean Red Blood Cell to Plasma Ratio ([1]; dihydrochloride): 3.3 and 4.5
COC(=O)c1ccc(OC(=O)N2CCC(Nc3nc(N[C@H]4CC[C@H](N)CC4)nc4c3ncn4C3CCCC3)CC2)cc1.Cl.Cl [compound 83, trans-4-[2-(4-Amino-cyclohexylamino)-9-cyclopentyl-9H-purin-6-ylamino]-piperidine-1-carboxylic acid 4-methoxycarbonyl-phenyl ester dihydrochloride] | 185 | 112.2 | 449 | 1520 | 0.7 | 1520 ± 612 | 218 ± 92.8 | 61.3 ± 32.9 | 14.1 | 4.1 | 1.6 | 6.3 | 19 | 0.17 | 0.07 | 0.14 | 0.07 | – | – | – | –
COc1ccc(OC(=O)N2CCC(Nc3nc(N[C@H]4CC[C@H](N)CC4)nc4c3ncn4C3CCCC3)CC2)cc1.Cl.Cl [compound 84, trans-4-[2-(4-Amino-cyclohexylamino)-9-cyclopentyl-9H-purin-6-ylamino]-piperidine-1-carboxylic acid 4-methoxy-phenyl ester dihydrochloride] | 69 | 3.5 | 965 | 1510 | 1.5 | 1510 ± 377 | 883 ± 140 | 446 ± 79 | 202 ± 37.3 | 27 ± 2.4 | 6.1 ± 0.8 | 2.9 ± 0.2 | 19 | 0.1 | 0.07 | 0.12 | 0.03 | – | – | – | –
Cl.Cl.N[C@H]1CC[C@H](Nc2nc(NC3CCN(C(=O)Oc4ccc(F)cc4)CC3)c3ncn(C4CCCC4)c3n2)CC1 [compound 87, trans-4-[2-(4-Amino-cyclohexylamino)-9-cyclopentyl-9H-purin-6-ylamino]-piperidine-1-carboxylic acid 4-fluoro-phenyl ester dihydrochloride] | 27 | 3.4 | 513 | 1170 | 1.6 | – | – | – | – | – | – | – | 15 | 0.11 | 0.08 | 0.2 | 0.16 | 1170 ± 153 | 372 ± 35.9 | 141 ± 9.5 | concentration at 1 h (in vivo; intravenous, 3 mg/kg): 65 ± 14 ng/mL; concentration at 3 h (in vivo; intravenous, 3 mg/kg): 19.2 ± 6 ng/mL; concentration at 6 h (in vivo; intravenous, 3 mg/kg): 4.3 ± 0.7 ng/mL; concentration at 8 h (in vivo; intravenous, 3 mg/kg): 3.2 ± 1.6 ng/mL
Cl.Cl.N[C@H]1CC[C@H](Nc2nc(NC3CCN(C(=O)Oc4ccc(Cl)cc4)CC3)c3ncn(C4CCCC4)c3n2)CC1 [compound 88, trans-4-[2-(4-Amino-cyclohexylamino)-9-cyclopentyl-9H-purin-6-ylamino]-piperidine-1-carboxylic acid 4-chloro-phenyl ester dihydrochloride] | 204 | 3.5 | 642 | 1480 | 1.9 | – | – | – | – | – | – | – | 35 | 0.02 | 0.06 | 0.02 | 0.04 | 1480 ± 272 | 421 ± 49.9 | 150 ± 5.9 | concentration at 1 h (in vivo; intravenous, 3 mg/kg): 74.6 ± 16.1 ng/mL; concentration at 3 h (in vivo; intravenous, 3 mg/kg): 24.8 ± 7.4 ng/mL; concentration at 6 h (in vivo; intravenous, 3 mg/kg): 8.9 ± 1.6 ng/mL; concentration at 8 h (in vivo; intravenous, 3 mg/kg): 5.4 ± 2 ng/mL
Cl.Cl.N[C@H]1CC[C@H](Nc2nc(NC3CCN(C(=O)Oc4ccc([N+](=O)[O-])cc4)CC3)c3ncn(C4CCCC4)c3n2)CC1 [compound 89, trans-4-[2-(4-Amino-cyclohexylamino)-9-cyclopentyl-9H-purin-6-ylamino]-piperidine-1-carboxylic acid 4-nitro-phenyl ester dihydrochloride] | 65 | 4.7 | 366 | 642 | 1.8 | – | – | – | – | – | – | – | 20 | 0.06 | 0.03 | 0.07 | 0.01 | 642 ± 49.5 | 303 ± 34.3 | 142 ± 2.7 | concentration at 1 h (in vivo; intravenous, 3 mg/kg): 52.4 ± 4.2 ng/mL; concentration at 3 h (in vivo; intravenous, 3 mg/kg): 17 ± 4.7 ng/mL; concentration at 6 h (in vivo; intravenous, 3 mg/kg): 3.7 ± 1 ng/mL; concentration at 8 h (in vivo; intravenous, 3 mg/kg): 3.8 ± 0.5 ng/mL
Cl.Cl.N[C@H]1CC[C@H](Nc2nc(NC3CCN(S(=O)(=O)c4ccc(F)cc4)CC3)c3ncn(C4CCCC4)c3n2)CC1 [compound 106, trans-N^2-(4-Amino-cyclohexyl)-9-cyclopentyl-N^6-[1-(4-fluoro-benzenesulfonyl)-piperidin-4-yl]-9H-purine-2,6-diamine dihydrochloride] | 15 | 3.0 | 440 | 765 | 1.3 | – | – | – | – | – | – | – | 8 | – | – | – | – | 765 ± 64.3 | 397 ± 59.2 | 185 ± 13 | IC50 (MDA-MB-435; [2]): 0.12 µM; IC50 (NCI-H460; [3]): 0.22 µM; IC50 (Jurkat; [4]): 0.19 µM; IC50 (Colo-205; [5]): 0.13 µM; concentration at 1 h (in vivo; intravenous, 3 mg/kg): 63.3 ± 0.5 ng/mL; concentration at 3 h (in vivo; intravenous, 3 mg/kg): 21.8 ± 6.1 ng/mL; concentration at 6 h (in vivo; intravenous, 3 mg/kg): 4.3 ± 0.8 ng/mL
